In patent US10144732B2 (BIOGEN MA INC., priority 2014, dated 2018):
Where a name gives a salt, the structure may show the parent alone.

Molecular target: T1, Human ATX protein (Homo sapiens, UniProt Q13822)
T1 construct: made in house
Assay: ATX biochemical assay (FRET, FS-3 substrate)
Settings: FRET assay, FS-3 2 μM, ATX 1.0 μg/mL, 30 minutes preincubation, 2 hours reaction at room temperature; read-out: IC50
How it was run: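 FRET read-out: cleavage of FS-3 (2 μM final) unquenches fluorescein, measured at 485/538 nm after 2 h at room temperature. Before substrate addition, in-house-expressed human autotaxin (1.0 μg/mL) sat with compound for 30 min in pH 7.4 Tris/NaCl/KCl/CaCl2/MgCl2 buffer containing fatty acid free-BSA at 1 mg/mL.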

IC50	Compound
≤ 100 nM	O=C(O)CCNCC(=O)N1CCc2c(C(F)(F)F)nn(Cc3ccc(Cl)cc3F)c2C1 [Example 13-32, 3-(2-(1-(4-Chloro-2-fluorobenzyl)-3-(trifluoromethyl)-4,5-dihydro-1H-pyrazolo[3,4-c]pyridin-6(7H)-yl)-2-oxoethylamino)propanoic acid TFA salt]
≤ 100 nM	CCN1CCC(CC(=O)N2CCc3c(C(F)(F)F)nn(Cc4ccc(Cl)cc4F)c3C2)CC1 [Example 11-3, 1-(1-(4-Chloro-2-fluorobenzyl)-3-(trifluoromethyl)-4,5-dihydro-1H-pyrazolo[3,4-c]pyridin-6(7H)-yl)-2-(1-ethylpiperidin-4-yl)ethanone HCl salt]
100 to 250 nM	COC(=O)[C@H]1CC[C@H](NC(=O)N2CCc3c(C(F)(F)F)nn(Cc4ccc(Cl)cc4F)c3C2)CC1 [Example 3-2, trans-Methyl 4-(1-(4-chloro-2-fluorobenzyl)-3-(trifluoromethyl)-4,5,6,7-tetrahydro-1H-pyrazolo[3,4-c]pyridine-6-carboxamido)cyclohexanecarboxylate]
≤ 100 nM	CC(c1ccc(F)cc1)n1nc(C(F)(F)F)c2c1CN(C(=O)C[C@H]1CC[C@H](C(=O)O)CC1)CC2 (stereo partly drawn) [Example 5-19, trans-4-(2-(1-(1-(4-Fluorophenyl)ethyl)-3-(trifluoromethyl)-4,5-dihydro-1H-pyrazolo[3,4-c]pyridin-6(7H)-yl)-2-oxoethyl)cyclohexanecarboxylic acid]
≤ 100 nM	O=C(CC1CCOCC1)N1CCc2c(C(F)(F)F)nn(Cc3ccc(F)cc3)c2C1 [Example 1-30, 1-(1-(4-Fluorobenzyl)-3-(trifluoromethyl)-4,5-dihydro-1H-pyrazolo[3,4-c]pyridin-6(7H)-yl)-2-(tetrahydro-2H-pyran-4-yl)ethanone]
≤ 100 nM	CN1CC(CC(=O)N2CCc3c(C(F)(F)F)nn(Cc4ccc(Cl)cc4F)c3C2)C[C@H]1C(=O)O (stereo partly drawn) [Example 10-11, (2S)-4-(2-(1-(4-Chloro-2-fluorobenzyl)-3-(trifluoromethyl)-4,5-dihydro-1H-pyrazolo[3,4-c]pyridin-6(7H)-yl)-2-oxoethyl)-1-methylpyrrolidine-2-carboxylic acid TFA salt]
≤ 100 nM	CC1CC(CC(=O)N2CCc3c(C(F)(F)F)nn(Cc4ccc(Cl)cc4F)c3C2)CCN1C (stereo not shown) [Example 10-2, 1-(1-(4-Chloro-2-fluorobenzyl)-3-(trifluoromethyl)-4,5-dihydro-1H-pyrazolo[3,4-c]pyridin-6(7H)-yl)-2-(1,2-dimethylpiperidin-4-yl)ethanone TFA salt]
≤ 100 nM	N#C[C@H]1CC[C@@H](CC(=O)N2CCc3c(C(F)(F)F)nn(Cc4ccc(F)cc4)c3C2)CC1 [Example 21-1, cis-4-(2-(1-(4-Fluorobenzyl)-3-(trifluoromethyl)-4,5-dihydro-1H-pyrazolo[3,4-c]pyridin-6(7H)-yl)-2-oxoethyl)cyclohexanecarbonitrile]
≤ 100 nM	CN(C)c1nn(Cc2ccc(F)cc2)c2c1CCN(C(=O)C[C@H]1CC[C@H](C(=O)O)CC1)C2 [Example 5-43, trans-4-(2-(3-(Dimethylamino)-1-(4-fluorobenzyl)-4,5-dihydro-1H-pyrazolo[3,4-c]pyridin-6 (7H)-yl)-2-oxoethyl)cyclohexanecarboxylic acid]
≤ 100 nM	O=C(CC1CCN(c2ccncc2)CC1)N1CCc2c(C(F)(F)F)nn(Cc3ccc(F)cc3)c2C1 [Example 18-4, 1-(1-(4-Fluorobenzyl)-3-(trifluoromethyl)-4,5-dihydro-1H-pyrazolo[3,4-c]pyridin-6(7H)-yl)-2-(1-(pyridin-4-yl)piperidin-4-yl)ethanone TFA salt]
≤ 100 nM	O=C(O)C1CC(CC(=O)N2CCc3c(C(F)(F)F)nn(Cc4ccc(F)cc4)c3C2)C1 (mixture of isomers) [Example 6-9, 3-(2-(1-(4-Fluorobenzyl)-3-(trifluoromethyl)-4,5-dihydro-1H-pyrazolo[3,4-c]pyridin-6(7H)-yl)-2-oxoethyl)cyclobutanecarboxylic acid]
≤ 100 nM	CCOC(=O)[C@H]1CC[C@@H](CC(=O)N2CCc3c(C(F)(F)F)nn(Cc4ccc(Cl)cc4F)c3C2)CC1 [Example 2-2, cis-Ethyl 4-(2-(1-(4-chloro-2-fluorobenzyl)-3-(trifluoromethyl)-4,5-dihydro-1H-pyrazolo[3,4-c]pyridin-6(7H)-yl)-2-oxoethyl)cyclohexanecarboxylate]
≤ 100 nM	COC(=O)CC1CN(CC(=O)N2CCc3c(C(F)(F)F)nn(Cc4ccc(F)cc4)c3C2)C1 [Example 12-19, Methyl 2-(1-(2-(1-(4-fluorobenzyl)-3-(trifluoromethyl)-4,5-dihydro-1H-pyrazolo[3,4-c]pyridin-6(7H)-yl)-2-oxoethyl)azetidin-3-yl)acetate TFA salt]
≤ 100 nM	O=C(C[C@H]1CC[C@@H](C(=O)O)CC1)N1CCc2c(C(F)(F)F)nn(Cc3ccc(F)cc3F)c2C1 [Example 5-34, cis-4-(2-(1-(2,4-Difluorobenzyl)-3-(trifluoromethyl)-4,5-dihydro-1H-pyrazolo[3,4-c]pyridin-6(7H)-yl)-2-oxoethyl)cyclohexanecarboxylic acid]
≤ 100 nM	O=C(C[C@H]1CC[C@H](C(=O)O)CC1)N1CCc2c(C(F)F)nn(Cc3ccc(F)cc3)c2C1 [Example 5-44, trans-4-(2-(3-(Difluoromethyl)-1-(4-fluorobenzyl)-4,5-dihydro-1H-pyrazolo[3,4-c]pyridin-6(7H)-yl)-2-oxoethyl)cyclohexanecarboxylic acid]
≤ 100 nM	O=C(CCc1nc2ccccc2s1)N1CCc2c(C(F)(F)F)nn(Cc3ccc(F)cc3)c2C1 [Example 1-14, 3-(Benzo[d]thiazol-2-yl)-1-(1-(4-fluorobenzyl)-3-(trifluoromethyl)-4,5-dihydro-1H-pyrazolo[3,4-c]pyridin-6(7H)-yl)propan-1-one]
≤ 100 nM	CCOC(=O)[C@H]1CC[C@H](CC(=O)N2CCc3c(C(F)(F)F)nn(Cc4cc(F)cc(Cl)c4)c3C2)CC1 [Example 2-3, trans-Ethyl 4-(2-(1-(3-chloro-5-fluorobenzyl)-3-(trifluoromethyl)-4,5-dihydro-1H-pyrazolo[3,4-c]pyridin-6(7H)-yl)-2-oxoethyl)cyclohexanecarboxylate]
≤ 100 nM	CC1CCN(CC(=O)N2CCc3c(C(F)(F)F)nn(Cc4ccc(F)cc4)c3C2)CC1 [Example 12-14, 1-(1-(4-Fluorobenzyl)-3-(trifluoromethyl)-4,5-dihydro-1H-pyrazolo[3,4-c]pyridin-6(7H)-yl)-2-(4-methylpiperidin-1-yl)ethanone]
250 to 500 nM	CCOC(=O)[C@H]1CC[C@H](CC(=O)N2CCc3c(CO)nn(Cc4ccc(F)cc4)c3C2)CC1 [Example 1-41, trans-Ethyl-4-(2-(1-(4-fluorobenzyl)-3-(hydroxymethyl)-4,5-dihydro-1H-pyrazolo[3,4-c]pyridin-6(7H)-yl)-2-oxoethyl)cyclohexanecarboxylate]
≤ 100 nM	O=C(O)C1CCN(CC(=O)N2CCc3c(C(F)(F)F)nn(Cc4ccc(Cl)cc4F)c3C2)CC1 [Example 13-2, 1-(2-(1-(4-Chloro-2-fluorobenzyl)-3-(trifluoromethyl)-4,5-dihydro-1H-pyrazolo[3,4-c]pyridin-6(7H)-yl)-2-oxoethyl)piperidine-4-carboxylic acid]
≤ 100 nM	O=C(CC1CCC(O)CC1)N1CCc2c(C(F)(F)F)nn(Cc3ccc(Cl)cc3F)c2C1 (stereo not shown) [Example 1-15, 1-(1-(4-Chloro-2-fluorobenzyl)-3-(trifluoromethyl)-4,5-dihydro-1H-pyrazolo[3,4-c]pyridin-6(7H)-yl)-2-(4-hydroxycyclohexyl)ethanone]
≤ 100 nM	O=C(CN[C@H]1CC[C@H](C(=O)O)CC1)N1CCc2c(C(F)(F)F)nn(Cc3ccc(F)cc3)c2C1 [Example 13-31, trans-4-(2-(1-(4-Fluorobenzyl)-3-(trifluoromethyl)-4,5-dihydro-1H-pyrazolo[3,4-c]pyridin-6(7H)-yl)-2-oxoethylamino)cyclohexanecarboxylic acid TFA salt]
≤ 100 nM	COC(=O)C1CC2CCC(C1)C2CC(=O)N1CCc2c(C(F)(F)F)nn(Cc3ccc(Cl)cc3F)c2C1 (stereo not shown) [Example 1-27, Methyl 8-(2-(1-(4-chloro-2-fluorobenzyl)-3-(trifluoromethyl)-4,5-dihydro-1H-pyrazolo[3,4-c]pyridin-6(7H)-yl)-2-oxoethyl)bicyclo[3.2.1]octane-3-carboxylate]
≤ 100 nM	O=C(CC1CC(N2CCCCC2)C1)N1CCc2c(C(F)(F)F)nn(Cc3ccc(F)cc3)c2C1 (stereo not shown) [Example 22-4, 1-(1-(4-Fluorobenzyl)-3-(trifluoromethyl)-4,5-dihydro-1H-pyrazolo[3,4-c]pyridin-6(7H)-yl)-2-(3-(piperidin-1-yl)cyclobutyl)ethanone TFA salt]
≤ 100 nM	O=C(O)C1CN(CC(=O)N2CCc3c(C(F)(F)F)nn(Cc4ccc(Cl)cc4F)c3C2)C1 [Example 13-17, 1-(2-(1-(4-Chloro-2-fluorobenzyl)-3-(trifluoromethyl)-4,5-dihydro-1H-pyrazolo[3,4-c]pyridin-6(7H)-yl)-2-oxoethyl)azetidine-3-carboxylic acid TFA salt]
≤ 100 nM	O=C(C[C@H]1CC[C@@H](C(=O)O)CC1)N1CCc2c(C(F)(F)F)nn(Cc3ccc(Cl)cc3Cl)c2C1 [Example 7-8, cis-4-(2-(1-(2,4-dichlorobenzyl)-3-(trifluoromethyl)-4,5-dihydro-1H-pyrazolo[3,4-c]pyridin-6(7H)-yl)-2-oxoethyl)cyclohexanecarboxylic acid]
≤ 100 nM	O=C(C[C@H]1CC[C@H](C(=O)O)CC1)N1CCc2c(C(F)(F)F)nn(CCC3CCCCC3)c2C1 [Example 7-22, trans-4-(2-(1-(2-cyclohexylethyl)-3-(trifluoromethyl)-4,5-dihydro-1H-pyrazolo[3,4-c]pyridin-6(7H)-yl)-2-oxoethyl)cyclohexanecarboxylic acid]

Compound	IC50
O=C(C1CN2CCC1CC2)N1CCc2c(C(F)(F)F)nn(Cc3ccc(F)cc3)c2C1 (stereo not shown) [Example 1-35, (1-(4-Fluorobenzyl)-3-(trifluoromethyl)-4,5-dihydro-1H-pyrazolo[3,4-c]pyridin-6(7H)-yl)(quinuclidin-3-yl)methanone TFA salt]	100 to 250 nM
